Assay results from PMC8125951, “Exploring the 2′-Hydroxy-Chalcone Framework for the Development of Dual Antioxidant and Soybean Lipoxygenase Inhibitory Agents” (Molecules, 2021).

Columns and labels:
[1] = ABTS radical cation decolorization assay; details: 100 μM
Experimental: The ABTS radical cation decolorization assay was used as another antioxidant activity estimation protocol (Table 2). Oxidation of ABTS with potassium persulfate generates directly the radical with no involvement of an intermediate radical, which is then reduced upon adding electron-donating antioxidants.
In order to produce the ABTS radical cation (ABTS^+·), ABTS stock solution in water (7 mM) was mixed with potassium persulfate (2.45 mM) and left in the dark at room temperature for 12–16 h before use. Our published experimental technique was used (1). The results are recorded after 1 min of the mixing solutions at 734 nm. The results were compared to the appropriate standard inhibitor Trolox.

soybean lipoxygenase = target: T1, soybean lipoxygenase (Glycine max, UniProt P08170); test: Soybean LOX inhibition study in vitro; format: biochemical; details: for inhibition at 100 µM: read-out: Inhibition of Soybean Lipoxygenase 100 μM (%)
T1 sequence (P08170 1-839): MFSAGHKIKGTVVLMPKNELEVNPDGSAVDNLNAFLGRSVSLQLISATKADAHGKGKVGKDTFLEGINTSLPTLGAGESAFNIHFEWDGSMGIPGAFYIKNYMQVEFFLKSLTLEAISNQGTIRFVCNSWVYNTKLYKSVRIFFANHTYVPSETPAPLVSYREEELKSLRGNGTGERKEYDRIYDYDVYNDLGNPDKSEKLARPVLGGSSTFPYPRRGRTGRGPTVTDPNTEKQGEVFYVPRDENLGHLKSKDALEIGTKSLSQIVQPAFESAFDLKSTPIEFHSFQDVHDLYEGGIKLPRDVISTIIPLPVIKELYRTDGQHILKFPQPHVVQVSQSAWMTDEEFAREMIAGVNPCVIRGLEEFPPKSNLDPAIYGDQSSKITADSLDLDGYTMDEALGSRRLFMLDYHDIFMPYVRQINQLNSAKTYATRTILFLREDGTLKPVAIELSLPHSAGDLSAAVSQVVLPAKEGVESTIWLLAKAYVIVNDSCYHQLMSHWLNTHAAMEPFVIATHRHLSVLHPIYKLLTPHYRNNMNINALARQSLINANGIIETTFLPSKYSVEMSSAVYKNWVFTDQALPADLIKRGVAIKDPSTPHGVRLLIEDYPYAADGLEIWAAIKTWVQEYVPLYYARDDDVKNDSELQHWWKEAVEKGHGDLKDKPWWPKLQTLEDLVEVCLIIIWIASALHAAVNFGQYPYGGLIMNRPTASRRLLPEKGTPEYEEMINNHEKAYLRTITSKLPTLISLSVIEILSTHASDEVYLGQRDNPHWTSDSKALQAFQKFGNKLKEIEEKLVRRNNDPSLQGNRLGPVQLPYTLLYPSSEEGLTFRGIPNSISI
Experimental: Furthermore, as an indication of their anti-inflammatory activity, all the molecules were tested as inhibitors of soybean lipoxygenase (LOX). The enzyme lipoxygenase catalyzes the first two steps in the metabolism of arachidonic acid, which is cleaved from membrane phospholipids to leukotrienes (LTB4). LTB4 generation is considered to be important in the pathogenesis of neutrophil-mediated inflammatory diseases. For this study, the UV absorbance-based soybean LOX assay was used, which is a plant enzyme with satisfactory homology with the human 5-LOX [61, 62, 63, 64, 65, 66].
The tested compounds dissolved in DMSO were incubated at room temperature with sodium linoleate (0.1 mL) and 0.2 mL of enzyme solution ([…] in saline) in Tris buffer pH 9.

[2] = Competition of the tested compounds with DMSO for hydroxyl radicals; details: 100 μM
Source text: Among the reactive oxygen species (ROS), the hydroxyl (^•OH) free radical is possibly the most toxic, reacting with several biological important molecules such as DNA, lipids, or carbohydrates. Polyunsaturated fatty acids are particularly vulnerable by free radicals. Iron released from damaged cells is more likely to be readily available to catalyze the generation of ^•OH radicals. Thus, we tried to test the ability of our compounds to scavenge hydroxyl radicals determining the competition of selected chalcones and aurones with DMSO for hydroxyl radicals. Hydroxyl radicals were generated using the Fe^3+/ascorbic acid system and expressed as a percentage inhibition of formaldehyde production in the presence of each compound at 100 μM.
The hydroxyl radicals generated by the Fe^3+ / ascorbic acid system, were detected by the determination of formaldehyde produced from the oxidation of DMSO (Table 2). A negative control using the same % DMSO was used. Trolox was used as reference compound [75].

[3] = Inhibition of linoleic acid lipid peroxidation induced by AAPH
Source text: The second technique is based on the ability of the compounds to inhibit lipid peroxidation of linoleic acid induced by 2,2′-Azobis(2-amidinopropane) dihydrochloride (AAPH) radical (Table 2). AAPH-induced linoleic acid oxidation has been developed as a quick and reliable method for measuring the antioxidant activity. The thermal free radical producer (AAPH) generates free radicals in the solution which cause the oxidation of linoleic acid, and the method is a measure of how effective antioxidants protect against lipid peroxidation in vitro. Oxidation of linoleic acid by AAPH is followed by UV spectrophotometry in a highly diluted sample [61].
2,2′-Azobis(2-amidinopropane) dihydrochloride (AAPH) was used as a free radical initiator. Ten microliters of the 16 mM linoleic acid sodium salt solution was added to the UV cuvette containing 0.93 mL of 0.05 M phosphate buffer, pH 7.4 prethermostated at 37 °C. The oxidation reaction was initiated at 37 °C under air by the addition of 50 μL of 40 mM AAPH solution. Oxidation was carried out in the presence of the synthesized compounds (10 μL, from a stock solution of 10 mM in DMSO). In the assay without antioxidant, lipid oxidation was measured in the presence of the same level of DMSO.

[4] = Interaction with the stable free radical DPPH (reducing activity)
Experimental: The first assay refers to the interaction of the compounds with the stable free radical DPPH and it is a fast, simple, cost-effective, and widely used method, where the DPPH radical reacts directly with the antioxidant and is decolorized. This interaction indicates their radical scavenging ability in an iron-free system. The scavenging effect of the synthesized analogues on the DPPH radical was evaluated according to the methods of Hadjipavlou et al..
To an ethanolic solution of DPPH (100 μM) in absolute ethanol, an equal volume of the compounds dissolved in DMSO was added (100 μM). […]

Row | SMILES | inhibition at 100 µM (soybean lipoxygenase) [%] | IC50 (soybean lipoxygenase; read-out: Inhibition of Soybean Lipoxygenase IC50) [µM] | ABTS+· % [1] | HO· (%) competition with DMSO for hydroxyl radicals [2] | Inhibition of Lipid Peroxidation of Linoleic Acid Induced by AAPH Radical (%) ([3]; 100 μM) | Interaction with the Free Radical DPPH (%) ([4]; 0 min) | Interaction with the Free Radical DPPH (%) ([4]; 100 μM, 20 min) | Interaction with the Free Radical DPPH (%) ([4]; 100 μM, 60 min) | Interaction with the Free Radical DPPH (%) ([4]; 3 min) | Interaction with the Free Radical DPPH (%) ([4]; 6 min) | Interaction with the Free Radical DPPH (%) ([4]; 9 min) | Inhibition of Lipid Peroxidation of Linoleic Acid Induced by AAPH Radical (%) ([3]; 0 min) | Inhibition of Lipid Peroxidation of Linoleic Acid Induced by AAPH Radical (%) ([3]; 3 min) | Inhibition of Lipid Peroxidation of Linoleic Acid Induced by AAPH Radical (%) ([3]; 6 min) | Inhibition of Lipid Peroxidation of Linoleic Acid Induced by AAPH Radical (%) ([3]; 9 min)
1 | O=C(/C=C/c1ccc(O)c(O)c1)c1ccc(O)cc1O [Compound 4a, 2′,3,4,4′-tetrahydroxy-chalcone] | 39.3 | – | 86% | 68% | 24.4 | 95.4 | 95.7% | 95.3% | 95.4 | 94.9 | 95.4 | – | – | – | –
2 | O=C(/C=C/c1ccc(O)c(O)c1)c1cc(Br)ccc1O [Compound 4b, 5′-bromo-2′,3,4-trihydroxy-chalcone] | – | 70 | inactive and no | 100% | 82.3 | – | 82.4% | 82.0% | – | – | – | 81.8 | 82.6 | 82.5 | 81.5

Second part, led by results:

Row | inhibition at 100 µM (soybean lipoxygenase) [%] | IC50 (soybean lipoxygenase; read-out: Inhibition of Soybean Lipoxygenase IC50) [µM] | SMILES | ABTS+· % [1] | HO· (%) competition with DMSO for hydroxyl radicals [2] | Inhibition of Lipid Peroxidation of Linoleic Acid Induced by AAPH Radical (%) ([3]; 100 μM) | Interaction with the Free Radical DPPH (%) ([4]; 0 min) | Interaction with the Free Radical DPPH (%) ([4]; 100 μM, 20 min) | Interaction with the Free Radical DPPH (%) ([4]; 100 μM, 60 min) | Interaction with the Free Radical DPPH (%) ([4]; 3 min) | Interaction with the Free Radical DPPH (%) ([4]; 6 min) | Interaction with the Free Radical DPPH (%) ([4]; 9 min) | Inhibition of Lipid Peroxidation of Linoleic Acid Induced by AAPH Radical (%) ([3]; 0 min) | Inhibition of Lipid Peroxidation of Linoleic Acid Induced by AAPH Radical (%) ([3]; 3 min) | Inhibition of Lipid Peroxidation of Linoleic Acid Induced by AAPH Radical (%) ([3]; 6 min) | Inhibition of Lipid Peroxidation of Linoleic Acid Induced by AAPH Radical (%) ([3]; 9 min)
3 | 24.4 | – | COCOc1ccc2c(c1)O/C(=C\c1ccc(OCOC)c(OCOC)c1)C2=O [Compound 6a, 3′,4′,6-tri(methoxymethoxy)-aurone] | 86% | 43% | 18.5 | – | no interaction and did not show any DPPH radical scavenging ability and no | no | – | – | – | – | – | – | –
4 | 13 | – | COc1cc(OC)c(OC)cc1/C=C1\Oc2ccccc2C1=O [Compound 6b, 2′,4′,5′-trimethoxy-aurone] | 64% | no | 29.4 | – | no interaction and did not show any DPPH radical scavenging ability and no | no | – | – | – | – | – | – | –
5 | 24.5 | – | O=C1/C(=C/c2ccc(O)c(O)c2)Oc2cc(O)ccc21 [Compound 7a, 3′,4′,6-Trihydroxy-Aurone] | 71% | inactive and no | 53.2 | 92.3 | 89% | 91.2% | 94.4 | 94.9 | 94.9 | – | – | – | –
